We go through eleven molecules from PubChem BioAssay (NCI).

“And” between values parts separate entries of the source, which are not always exact repeats. Equal values may be shown once.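 Cultured in 96-well plates, cells were exposed to test compound for 48 hours across five concentrations. GI50: concentration for 50% inhibition of growth. TGI is the concentration that stops growth completely.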

Some test systems named below: NCI-H226 lung; DU-145 prostate; HOP-92 NSCLC; HCT-116 colon; NCI-H23 lung; SNB-75 CNS; SK-MEL-28 melanoma; OVCAR-4 ovarian; MOLT-4 leukemia; MCF7 breast.
Test in all cases: NCI anticancer screen, dose series, 48 h

Turning to `COc1ccc(C2CC(=O)Nc3c2c(C)nn3-c2nc3ccccc3[nH]2)cc1` (stereo not drawn), the GI50 in the experiment with NCI-H226 lung is 2.58 µM; in the experiment with DU-145 prostate, 3.64 µM; with HOP-92 NSCLC it was 2.34 µM; with HCT-116 colon, 2120 nM; with NCI-H23 lung, 2.57 µM; in the experiment on SNB-75 CNS, 2360 nM. Moreover, the GI50 in the experiment on SK-MEL-28 melanoma was 3.92 µM; in the experiment on OVCAR-4 ovarian, 3.71 µM; in the experiment with MOLT-4 leukemia it was 0.0589 µM; in the experiment on MCF7 breast it was 3.11 µM. Also, the TGI with NCI-H226 lung came to 7.9 µM; in the experiment on DU-145 prostate, 16.8 µM; with HOP-92 NSCLC it was 6.72 µM; in the experiment on HCT-116 colon, 4.38 µM; in the experiment on NCI-H23 lung, 6.83 µM; in the experiment on SNB-75 CNS, 9.12 µM. Besides, the TGI in the experiment on SK-MEL-28 melanoma is > 55.9 µM; in the experiment with OVCAR-4 ovarian, > 59.1 µM; with MOLT-4 leukemia, 0.326 µM; in the experiment with MCF7 breast, > 34 µM.

With `COc1cc2c(cc1OCCCCCOc1cc(-c3ccc(F)cc3)nc(C)n1)N=C[C@@H]1CCCN1C2=O`, the GI50 was > 100 µM with NCI-H226 lung; > 39.8 µM in the experiment on DU-145 prostate; 0.376 µM with HOP-92 NSCLC; > 52900 nM with HCT-116 colon; > 100 µM in the experiment on NCI-H23 lung; > 100000 nM in the experiment with SNB-75 CNS. Moreover, the GI50 with SK-MEL-28 melanoma was > 46.2 µM; in the experiment with OVCAR-4 ovarian, > 40.6 µM; in the experiment on MCF7 breast, > 23.6 µM. In addition, the TGI was > 100 µM in the experiment with NCI-H226 lung; > 87.4 µM in the experiment on DU-145 prostate; 6.7 µM in the experiment with HOP-92 NSCLC; 98.4 µM with HCT-116 colon; > 100 µM in the experiment on NCI-H23 lung; > 100 µM with SNB-75 CNS. For the same molecule, the TGI is > 79.8 µM in the experiment with SK-MEL-28 melanoma, > 79.7 µM with OVCAR-4 ovarian, > 45 µM in the experiment with MOLT-4 leukemia and > 48.8 µM in the experiment on MCF7 breast.

For the molecule `COc1cc(N2CCC(N(C)C)CC2)ccc1Nc1ncc(Cl)c(Nc2ccccc2P(C)(C)=O)n1`, the GI50 is 0.454 µM and 0.0582 µM with NCI-H226 lung; 0.972 µM and 0.545 µM in the experiment on DU-145 prostate; 0.0882 µM in the experiment on HOP-92 NSCLC; 1400 nM and 183 nM in the experiment with HCT-116 colon; 1.33 µM and 0.338 µM in the experiment on NCI-H23 lung; 1070 nM and 228 nM in the experiment on SNB-75 CNS. Besides, the GI50 was 6.44 µM and 1.31 µM in the experiment on SK-MEL-28 melanoma; 0.448 µM and 0.615 µM in the experiment with OVCAR-4 ovarian; 4.05 µM and 1.16 µM in the experiment with MOLT-4 leukemia; 0.202 µM and 0.0522 µM in the experiment on MCF7 breast. For the same molecule, the TGI was 2.76 µM and 4.21 µM with NCI-H226 lung; > 25.2 µM and 3.8 µM with DU-145 prostate; 0.918 µM with HOP-92 NSCLC; > 39.2 µM with HCT-116 colon; 17.1 µM and > 4.62 µM with NCI-H23 lung; 2.69 µM and 0.82 µM in the experiment on SNB-75 CNS. Also, the TGI was 37 µM and > 7.34 µM in the experiment on SK-MEL-28 melanoma; 10.8 µM and > 10 µM in the experiment with OVCAR-4 ovarian; > 100 µM in the experiment on MOLT-4 leukemia; 21.6 µM and > 10 µM in the experiment on MCF7 breast.

`O=C(CNC(=O)c1cccc2ccccc12)Nc1ccccc1Oc1cccc(O)c1`: the GI50 with NCI-H226 lung is > 25 µM; in the experiment with DU-145 prostate, 9.47 µM; in the experiment with HOP-92 NSCLC, > 25 µM; with HCT-116 colon it was 1360 nM; with NCI-H23 lung it was 16 µM; in the experiment with SNB-75 CNS, 3300 nM. Also, the GI50 was > 25 µM in the experiment on SK-MEL-28 melanoma, > 25 µM in the experiment with OVCAR-4 ovarian, 4.84 µM with MOLT-4 leukemia and 4.51 µM in the experiment on MCF7 breast. Moreover, the TGI in the experiment on NCI-H226 lung, in the experiment with DU-145 prostate, in the experiment on HOP-92 NSCLC, in the experiment on HCT-116 colon, in the experiment on NCI-H23 lung and in the experiment on SNB-75 CNS was > 25 µM throughout. The TGI in the experiment on SK-MEL-28 melanoma, in the experiment with OVCAR-4 ovarian, in the experiment on MOLT-4 leukemia and in the experiment with MCF7 breast was > 25 µM each time.

`O=C1C(NCCO)=C(N2CC2)C(=O)C(NCCO)=C1N1CC1`: the TGI was > 94.4 µM in the experiment on NCI-H226 lung; > 100 µM in the experiment on DU-145 prostate; > 100 µM in the experiment with HOP-92 NSCLC; 67.1 µM in the experiment on HCT-116 colon; 74.6 µM in the experiment with NCI-H23 lung; > 100 µM with SNB-75 CNS. In addition, the TGI in the experiment on SK-MEL-28 melanoma is > 100 µM; in the experiment with OVCAR-4 ovarian, > 70.8 µM; in the experiment with MOLT-4 leukemia, 58.5 µM; in the experiment on MCF7 breast, > 100 µM.

In the case of `C[C@]12CC[C@H]3[C@@H](CCC4=CC(=O)CC[C@@H]43)[C@@H]1CC[C@@H]2OC1(O)C(=O)c2ccccc2C1=O`, the TGI was > 100 µM in the experiment on NCI-H226 lung; 66.7 µM in the experiment with DU-145 prostate; > 100 µM in the experiment with HOP-92 NSCLC; 30.1 µM in the experiment on HCT-116 colon; 62.5 µM in the experiment on NCI-H23 lung; > 100 µM with SNB-75 CNS. Moreover, the TGI in the experiment with SK-MEL-28 melanoma is > 100 µM; in the experiment on OVCAR-4 ovarian it was > 100 µM; in the experiment with MOLT-4 leukemia it was 92.8 µM; in the experiment on MCF7 breast, > 100 µM.

Turning to `FC(F)(F)c1ccc2c(c1)N(CCCN1CCN(C3CC3)CC1)c1ccccc1S2`, the GI50 is 10.7 µM in the experiment on NCI-H226 lung; 13.8 µM with DU-145 prostate; 13.9 µM with HOP-92 NSCLC; 9430 nM in the experiment with HCT-116 colon; 7.42 µM with NCI-H23 lung; 13500 nM with SNB-75 CNS. Besides, the GI50 in the experiment on SK-MEL-28 melanoma was 15.2 µM; with OVCAR-4 ovarian it was 11.1 µM; in the experiment with MOLT-4 leukemia, 6.13 µM; with MCF7 breast, 9.53 µM. The TGI came to 23.4 µM in the experiment on NCI-H226 lung; 28.6 µM with DU-145 prostate; 28.1 µM with HOP-92 NSCLC; 23.2 µM in the experiment on HCT-116 colon; 23.1 µM in the experiment on NCI-H23 lung; 28.1 µM with SNB-75 CNS. The TGI in the experiment with SK-MEL-28 melanoma is 29.1 µM; in the experiment on OVCAR-4 ovarian, 23.7 µM; in the experiment with MOLT-4 leukemia, 23.7 µM; with MCF7 breast it was 22.1 µM.

Turning to `COc1nccc(-c2c(-c3ccc(F)cc3)ncn2C2CCC(O)CC2)n1` (stereo not drawn), the GI50 in the experiment with NCI-H226 lung is > 77.8 µM; in the experiment on DU-145 prostate, 72.8 µM; with HOP-92 NSCLC, > 100 µM; in the experiment with HCT-116 colon it was 79300 nM; with NCI-H23 lung, > 100 µM; in the experiment with SNB-75 CNS, > 100000 nM. In addition, the GI50 in the experiment on SK-MEL-28 melanoma is > 58.3 µM; in the experiment on OVCAR-4 ovarian, > 65.3 µM; with MOLT-4 leukemia, > 95.3 µM; with MCF7 breast, 24.9 µM. Moreover, the TGI with NCI-H226 lung, with DU-145 prostate, in the experiment on HOP-92 NSCLC, in the experiment on HCT-116 colon, in the experiment on NCI-H23 lung and in the experiment with SNB-75 CNS was > 100 µM in each case. In addition, the TGI in the experiment on SK-MEL-28 melanoma, with OVCAR-4 ovarian, in the experiment with MOLT-4 leukemia and with MCF7 breast was > 100 µM throughout.

As for `Cc1sc2ncnc(Sc3nc4ccccc4[nH]3)c2c1C`, the GI50 in the experiment with NCI-H226 lung was 27.2 µM; in the experiment on DU-145 prostate, 20.8 µM; in the experiment on HOP-92 NSCLC, 13.8 µM; in the experiment with HCT-116 colon, 24000 nM; in the experiment on NCI-H23 lung it was 30.4 µM; with SNB-75 CNS, 1520 nM. Further, the GI50 was 23.4 µM in the experiment with SK-MEL-28 melanoma, 20.6 µM in the experiment with OVCAR-4 ovarian, 22.2 µM in the experiment with MOLT-4 leukemia and 13.6 µM with MCF7 breast. For the same molecule, the TGI was > 100 µM in the experiment on NCI-H226 lung; 72.4 µM in the experiment on DU-145 prostate; 63.8 µM with HOP-92 NSCLC; > 100 µM in the experiment on HCT-116 colon; > 100 µM in the experiment on NCI-H23 lung; 27 µM in the experiment on SNB-75 CNS. In addition, the TGI is 74.7 µM in the experiment on SK-MEL-28 melanoma, 66.9 µM with OVCAR-4 ovarian, 88.7 µM in the experiment on MOLT-4 leukemia and 67 µM in the experiment on MCF7 breast.

In the case of `CC(=O)OCC(=O)[C@@]1(O)[C@H](C)C[C@H]2[C@@H]3C=C(C)C4=Cc5c(cnn5-c5ccc(F)cc5)C[C@]4(C)[C@H]3[C@@H](O)C[C@@]21C`, the GI50 in the experiment on NCI-H226 lung is 2.23 µM; with DU-145 prostate, 2.03 µM; in the experiment on HCT-116 colon, 1660 nM; in the experiment with NCI-H23 lung, 2.08 µM; in the experiment on SNB-75 CNS it was 1190 nM; in the experiment with SK-MEL-28 melanoma, 1.33 µM. The GI50 in the experiment with OVCAR-4 ovarian was 2.12 µM; in the experiment on MOLT-4 leukemia, 1.94 µM; in the experiment with MCF7 breast, 1.89 µM. The TGI in the experiment with NCI-H226 lung is 9.08 µM; in the experiment on DU-145 prostate, 5.17 µM; in the experiment on HOP-92 NSCLC, 5.87 µM; in the experiment on HCT-116 colon it was 3.5 µM; with NCI-H23 lung, 5.8 µM; in the experiment with SNB-75 CNS, 4.14 µM. The TGI in the experiment with SK-MEL-28 melanoma came to 2.81 µM; in the experiment with OVCAR-4 ovarian, 11.5 µM; in the experiment with MOLT-4 leukemia it was 6.76 µM; in the experiment with MCF7 breast, 6.24 µM.

`CC(C)(C)Cn1c(N)nc2ccc(-c3[nH]c(C(C)(C)C)nc3-c3ccc(F)cc3)nc21`: the GI50 is 12.2 µM with NCI-H226 lung; 10.6 µM in the experiment on DU-145 prostate; 3.41 µM with HOP-92 NSCLC; 6750 nM in the experiment with HCT-116 colon; 13.9 µM in the experiment with NCI-H23 lung; 2300 nM in the experiment with SNB-75 CNS. Besides, the GI50 with SK-MEL-28 melanoma was 11.6 µM; with OVCAR-4 ovarian, 13.3 µM; in the experiment on MOLT-4 leukemia, 7.7 µM; in the experiment on MCF7 breast, 10.6 µM. For the same molecule, the TGI in the experiment with NCI-H226 lung came out at 35.9 µM; with DU-145 prostate, 23.5 µM; in the experiment on HOP-92 NSCLC, 26.3 µM; in the experiment with HCT-116 colon it was 23 µM; in the experiment with NCI-H23 lung, 31 µM; in the experiment on SNB-75 CNS, 16.8 µM. The TGI with SK-MEL-28 melanoma is 23.8 µM; with OVCAR-4 ovarian it was 40.4 µM; in the experiment on MOLT-4 leukemia it was 36.9 µM; with MCF7 breast, 25.5 µM.
